# Measured values as given in patent US11584755B2 (IDEAYA BIOSCIENCES, INC., priority 2017, dated 2023).
# Columns and labels:
# hFEN1 = hFEN1 (Homo sapiens (Human), UniProt P39748); assay: Enzymatic IC50 assay, FAM-labeled DNA oligomer substrate, fluorescence intensity (FEN1); type: biochemical; settings: hFEN1 70 pM, substrate 100 nM, reaction time 20 minutes, 23° C.
# Description: (§1) FEN1, EXO1 or XPG enzyme was incubated with compound or vehicle (DMSO) and the FAM-labeled DNA oligomer substrate in a microtiter plate. The stop buffer contains EDTA to stop the enzymatic reaction. The plate is read for fluorescence intensity. The high control (DMSO) with high fluorescence intensity represents no inhibition of enzymatic reaction while the low control (10 μM) with low fluorescence intensity represents full inhibition of enzymatic reaction.
# (§2) • FEN1 • hFEN1: 70 pM • Substrate: 100 nM • Reaction time: 20 minutes • EXO1 • hEXO1: 6 nM, Isoforml • Substrate: 30 nM • Reaction time: 60 minutes • XPG • hXPG: 100 nM • Substrate: 100 nM • Reaction time: 120 minutes
# (§3) Annealing Buffer: 50 mM Tris-HCl, 50 mM NaCl, 1 mM DTT Assay buffer: 50 mM Tris-HCl pH 8.0, 10 mM MgCl2, 0.01% BSA, 1 mM DTT Stop buffer: 50 mM EDTA in assay buffer Temperature: 23° C. Total volume: 40 μl Controls: • 0% inhibition control: DMSO • 100% inhibition control: 10 μM (final) 5-chloro-3-hydroxy-1,3-dihydroquinazoline-2,4-dione Enzyme Reaction and Detection: • 1. Prepare 25 μM intermediate stock of the substrate by diluting SEQ ID NO:1, SEQ ID NO:2, and SEQ ID NO:3 in annealing buffer, in a PCR tube. • 2. Place the PCR tube on a heat block, heat at 95° C. for 3 minutes, then drop in 0.2° C. increments over 2 minutes, stopping at 25° C. • 3. Remove the tube and let the tube cool at room temperature. • 4. Transfer 10 μL of 3× final concentration test compounds or DMSO to the appropriate wells of a microtiter plate. • 5. Transfer 10 μL of 3× final concentration enzyme in assay buffer or assay buffer alone to the appropriate wells. • 6. Incubate the plate at room temperature for 15 minutes. • 7. Transfer 10 μL of 3× substrate in assay buffer to all the test wells. • 8. Incubate the plate at room temperature for prescribed reaction time. • 9. Centrifuge the plate at 1000 rpm for 1 minute. • 10. Transfer 10 μL of stop buffer to all the test wells. • 11. Centrifuge the plate at 1000 rpm for 1 minute. • 12. Read the plate on a plate reader.
# hEXO1, Isoform1 = hEXO1, Isoform1 (Homo sapiens (Human), UniProt Q9UQ84); assay: Enzymatic IC50 assay, FAM-labeled DNA oligomer substrate, fluorescence intensity (EXO1); type: biochemical; settings: hEXO1 6 nM, substrate 30 nM, reaction time 60 minutes, 23° C.
# Description: as §1, §2, §3
# hEXO1, Isoform1, sequence (Q9UQ84 whole entry, canonical isoform): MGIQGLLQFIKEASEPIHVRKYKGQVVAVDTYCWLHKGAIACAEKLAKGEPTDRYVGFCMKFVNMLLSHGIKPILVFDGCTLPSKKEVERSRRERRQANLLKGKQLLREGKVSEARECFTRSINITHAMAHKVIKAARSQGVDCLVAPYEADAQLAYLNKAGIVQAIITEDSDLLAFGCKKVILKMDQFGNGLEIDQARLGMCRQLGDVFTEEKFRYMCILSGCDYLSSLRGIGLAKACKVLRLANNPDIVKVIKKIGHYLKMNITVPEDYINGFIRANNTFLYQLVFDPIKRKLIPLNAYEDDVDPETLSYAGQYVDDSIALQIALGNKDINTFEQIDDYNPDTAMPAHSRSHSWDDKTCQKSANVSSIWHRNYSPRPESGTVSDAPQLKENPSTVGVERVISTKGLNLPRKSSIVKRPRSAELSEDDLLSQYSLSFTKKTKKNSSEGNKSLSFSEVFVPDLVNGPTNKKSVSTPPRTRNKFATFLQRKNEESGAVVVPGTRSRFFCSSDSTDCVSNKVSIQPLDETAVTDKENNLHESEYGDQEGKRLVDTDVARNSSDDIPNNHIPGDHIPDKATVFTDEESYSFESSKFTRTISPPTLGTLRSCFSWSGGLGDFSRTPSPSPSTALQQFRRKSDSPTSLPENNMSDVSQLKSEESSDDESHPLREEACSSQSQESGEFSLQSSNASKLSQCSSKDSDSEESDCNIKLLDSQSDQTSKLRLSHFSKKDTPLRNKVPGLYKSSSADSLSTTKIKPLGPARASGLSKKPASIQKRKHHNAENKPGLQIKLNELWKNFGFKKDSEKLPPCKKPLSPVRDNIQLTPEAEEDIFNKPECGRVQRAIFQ
# hFEN1, sequence (P39748 whole entry): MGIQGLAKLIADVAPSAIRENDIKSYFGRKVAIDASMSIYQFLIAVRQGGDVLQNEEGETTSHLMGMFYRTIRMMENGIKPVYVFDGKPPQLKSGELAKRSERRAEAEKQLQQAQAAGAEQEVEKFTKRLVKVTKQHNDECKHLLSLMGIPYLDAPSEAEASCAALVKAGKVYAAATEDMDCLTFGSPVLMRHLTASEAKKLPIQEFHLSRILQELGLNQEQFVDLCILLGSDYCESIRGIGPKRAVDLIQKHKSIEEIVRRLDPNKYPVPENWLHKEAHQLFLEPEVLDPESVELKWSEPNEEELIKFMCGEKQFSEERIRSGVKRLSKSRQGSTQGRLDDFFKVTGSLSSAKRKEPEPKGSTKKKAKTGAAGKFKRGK
SMILES,IC50 (hFEN1) [nM],"IC50 (hEXO1, Isoform1) [nM]"
"O=C(O)c1c(O)c(=O)n(Cc2cccc([N+](=O)[O-])c2)c2ccsc12 [Example 6, 6-hydroxy-4-[(3-nitrophenyl)methyl]-5-oxo-thieno[3,2-b]pyridine-7-carboxylic acid]",250 to 750,2250 to 10000
"CC(=O)N1CCC(Cn2c(=O)c(O)c(C(=O)O)c3sccc32)CC1 [Example 9, 4-[(1-acetyl-4-piperidyl)methyl]-6-hydroxy-5-oxo-thieno[3,2-b]pyridine-7-carboxylic acid]",2250 to 10000,2250 to 10000
"O=C(O)c1c(O)c(=O)n(Cc2cnc3c(-c4ccncc4)cccn23)c2ccsc12 [Example 31, 6-hydroxy-5-oxo-4-{[8-(pyridin-4-yl)imidazo[1,2-a]pyridin-3-yl]methyl}-4,5-dihydrothieno[3,2-b]pyridine-7-carboxylic acid]",2250 to 10000,2250 to 10000
"COc1ccc(-c2ncc(Cn3c(=O)c(O)c(C(=O)O)c4sccc43)s2)cc1 [Example 32, 6-hydroxy-4-{[2-(4-methoxyphenyl)thiazol-5-yl]methyl}-5-oxo-4,5-dihydrothieno[3,2-b]pyridine-7-carboxylic acid]",250 to 750,750 to 2250
"O=C(O)c1c(O)c(=O)n(Cc2ccccc2[N+](=O)[O-])c2ccsc12 [Example 37, 6-hydroxy-4-(2-nitrobenzyl)-5-oxo-4,5-dihydrothieno[3,2-b]pyridine-7-carboxylic acid]",250 to 750,2250 to 10000
"CCOC(=O)c1c(O)c(=O)n(Cc2ccc(N)cc2)c2ccsc12 [Example 41, ethyl 4-(4-aminobenzyl)-6-hydroxy-5-oxo-4,5-dihydrothieno[3,2-b]pyridine-7-carboxylate]",250 to 750,2250 to 10000
"O=C(O)c1c(O)c(=O)n(CC2CCCC2)c2ccsc12 [Example 45, 4-(cyclopentylmethyl)-6-hydroxy-5-oxo-4,5-dihydrothieno[3,2-b]pyridine-7-carboxylic acid]",2250 to 10000,2250 to 10000
"N#Cc1ccc(Cn2c(=O)c(O)c(C(=O)O)c3sccc32)cc1 [Example 48, 4-(4-cyanobenzyl)-6-hydroxy-5-oxo-4,5-dihydrothieno[3,2-b]pyridine-7-carboxylic acid]",2250 to 10000,2250 to 10000
"CC(=O)N1CCCC(Cn2c(=O)c(O)c(C(=O)O)c3sccc32)C1 (stereo not drawn) [Example 49, 4-((1-acetylpiperidin-3-yl)methyl)-6-hydroxy-5-oxo-4,5-dihydrothieno[3,2-b]pyridine-7-carboxylic acid]",2250 to 10000,2250 to 10000
"O=C(O)c1c(O)c(=O)n(CC2CCCNC2)c2ccsc12 (stereo not drawn) [Example 62, 6-hydroxy-5-oxo-4-(piperidin-3-ylmethyl)-4,5-dihydrothieno[3,2-b]pyridine-7-carboxylic acid]",2250 to 10000,2250 to 10000
"CNC(=O)c1cccc(Cn2c(=O)c(O)c(C(=O)O)c3sccc32)c1 [Example 66, 6-hydroxy-4-[3-(methylcarbamoyl)benzyl]-5-oxo-4,5-dihydrothieno[3,2-b]pyridine-7-carboxylic acid]",2250 to 10000,2250 to 10000
"COc1ccc(Cn2c(=O)c(O)c(C(=O)O)c3sccc32)cc1Cl [Example 70, 4-(3-chloro-4-methoxybenzyl)-6-hydroxy-5-oxo-4,5-dihydrothieno[3,2-b]pyridine-7-carboxylic acid]",< 200,750 to 2250
"O=C(O)c1c(O)c(=O)n(Cc2cccc3nonc23)c2ccsc12 [Example 72, 4-(benzo[c][1,2,5]oxadiazol-4-ylmethyl)-6-hydroxy-5-oxo-4,5-dihydrothieno[3,2-b]pyridine-7-carboxylic acid]",2250 to 10000,2250 to 10000

# The next lines start with the values.
IC50 (hFEN1) [nM],"IC50 (hEXO1, Isoform1) [nM]",SMILES
2250 to 10000,> 10000,"Cc1nc(Cn2c(=O)c(O)c(C(=O)O)c3sccc32)cs1 [Example 92, 6-hydroxy-4-[(2-methylthiazol-4-yl)methyl]-5-oxo-4,5-dihydrothieno[3,2-b]pyridine-7-carboxylic acid]"
> 10000,> 10000,"Cc1nc(Cn2c(=O)c(O)c(C(=O)O)c3sccc32)co1 [Example 96, 6-hydroxy-4-((2-methyloxazol-4-yl)methyl)-5-oxo-4,5-dihydrothieno[3,2-b]pyridine-7-carboxylic acid]"
< 200,2250 to 10000,"Nc1ccc(Cn2c(=O)c(O)c(C(=O)O)c3sccc32)cn1 [Example 97, 4-[(6-aminopyridin-3-yl)methyl]-6-hydroxy-5-oxo-4,5-dihydrothieno[3,2-b]pyridine-7-carboxylic acid]"
250 to 750,–,"O=C(O)c1c(O)c(=O)n(Cc2ccc(-c3ccccc3)nc2)c2ccsc12 [Example 147, 6-hydroxy-5-oxo-4-[(6-phenylpyridin-3-yl)methyl]-4,5-dihydrothieno[3,2-b]pyridine-7-carboxylic acid]"
< 200,–,"COc1cccc(Cn2cc(Cn3c(=O)c(O)c(C(=O)O)c4sccc43)nn2)c1 [Example 150, 6-hydroxy-4-{[1-(3-methoxybenzyl)-1H-1,2,3-triazol-4-yl]methyl}-5-oxo-4,5-dihydrothieno[3,2-b]pyridine-7-carboxylic acid]"
250 to 750,–,"COc1cc(-c2ccc(Cn3c(=O)c(O)c(C(=O)O)c4sccc43)cc2)ccn1 [Example 151, 6-hydroxy-4-(4-(2-methoxypyridin-4-yl)benzyl)-5-oxo-4,5-dihydrothieno[3,2-b]pyridine-7-carboxylic acid]"
< 200,–,"COCCOc1ccc(Cn2c(=O)c(O)c(C(=O)O)c3sccc32)cc1 [Example 152, 6-hydroxy-4-[4-(2-methoxyethoxy)benzyl]-5-oxo-4,5-dihydrothieno[3,2-b]pyridine-7-carboxylic acid]"
250 to 750,–,"CS(=O)(=O)COc1ccc(Cn2c(=O)c(O)c(C(=O)O)c3sccc32)cc1 [Example 153, 6-hydroxy-4-{4-[(methylsulfonyl)methoxy]benzyl}-5-oxo-4,5-dihydrothieno[3,2-b]pyridine-7-carboxylic acid]"
2250 to 10000,–,"COc1ccc(Cn2c(=O)c(O)c(C(=O)O)c3sc(CC(C)C)cc32)cc1 [Example 157, 6-hydroxy-2-isobutyl-4-(4-methoxybenzyl)-5-oxo-4,5-dihydrothieno[3,2-b]pyridine-7-carboxylic acid]"
2250 to 10000,750 to 2250,"Cn1cc(Cn2c(=O)c(O)c(C(=O)O)c3sccc32)c(-c2ccccc2)n1 [Example 158, 6-hydroxy-4-[(1-methyl-3-phenyl-1H-pyrazol-4-yl)methyl]-5-oxo-4,5-dihydrothieno[3,2-b]pyridine-7-carboxylic acid]"
–,2250 to 10000,"Cc1c(Cn2c(=O)c(O)c(C(=O)O)c3sccc32)cnn1C [Example 159, 4-[(1,5-dimethyl-1H-pyrazol-4-yl)methyl]-6-hydroxy-5-oxo-4,5-dihydrothieno[3,2-b]pyridine-7-carboxylic acid]"
> 10000,> 10000,"Cn1ncc(Cn2c(=O)c(O)c(C(=O)O)c3sccc32)c1-c1ccccc1 [Example 160, 6-hydroxy-4-[(1-methyl-5-phenyl-1H-pyrazol-4-yl)methyl]-5-oxo-4,5-dihydrothieno[3,2-b]pyridine-7-carboxylic acid]"
250 to 750,750 to 2250,"COc1ccc(-n2cc(Cn3c(=O)c(O)c(C(=O)O)c4sccc43)c(Br)n2)cc1 [Example 161, 4-{[3-bromo-1-(4-methoxyphenyl)-1H-pyrazol-4-yl]methyl}-6-hydroxy-5-oxo-4,5-dihydrothieno[3,2-b]pyridine-7-carboxylic acid]"
